{
  "source": "patent US20130273649A1",
  "about": "“Culture medium for pluripotent stem cells” (UNIVERSITY OF SOUTHERN CALIFORNIA, priority 2012, published 2013)",
  "key": {"CD1 EpiSCs": {"tested_on": "CD1 EpiSCs", "assay": "Clonogenicity: colony formation after single-cell deposition of EpiSCs", "assay_type": "cell-based, mouse", "conditions": "96-well plate, CHIR only", "experimental": "(A) Representative phase-contrast images of CD1 mouse EpiSCs cultured in the indicated conditions. […] (B) Phase-contrast image showing differentiating CD1 mouse EpiSCs at the 2nd passage in GMEM/10% FBS with 2 μM XAV. (C) CD1 mouse EpiSCs were cultured in CHIR/XAV for 7 passages and were subsequently immunostained with indicated antibodies against pluripotency markers. (D) Numbers of undifferentiated colonies formed by day 9 after single-cell deposition of CD1 EpiSCs into 0.1% gelatin-coated 96-well plates and cultured in the conventional mouse ESC medium supplemented with the indicated small molecules or cytokines Results are shown as mean±s.d. of six biological replicates. (E) De novo derivation of mouse EpiSCs. Epiblast tissue (outlined in dashed line) of the E5.75 CD1 mouse embryo was dissected and cultured in CHIR/XAV. The outgrowth formed from the plated epiblast (middle panel) was disaggregated to establish a stable EpiSC line (right panel). Thirteen […] established from 13 plated CD1 mouse embryos. Scale bars, 50 μ[…]). See also FIG. 8. We compared the clonogenicity of EpiSCs cultured in different conditions. […] EpiSC colonies formed in CHIR/XAV were readily expanded to establish stable cell lines. […] As expected, in the CHIR/XAV condition, EpiSCs were readily derived from embryonic day (E) 5.75 embryos of CD1 and 129SvE mice (FIGS. 1E and 8B). […]"}, "H9 human ESCs": {"tested_on": "H9 human ESCs", "assay": "Human ESC self-renewal culture", "assay_type": "cell-based", "text": "As human ESCs share defining features with mouse EpiSCs (Hanna et al., 2010; Rossant, 2008; Tesar et al., 2007), we tested whether modulating β-catenin function can also promote human ESC self-renewal. […] Next, we examined the effect of CHIR/XAV and CHIR/IWR-1 on human ESC self-renewal. […] Similar results were obtained in H1 and HES3 human ESCs (data not shown). […] Moreover, human ESCs maintained in CHIR/IWR-1 express pluripotency markers Oct4, Nanog and Sox2 (FIG. 7E), and retain the ability to differentiate into cells of all three germ layers, both in vitro and in vivo (FIGS. 7F and 7G).\nThe basal medium for mouse EpiSC culture is the conventional mouse ESC medium, which consists of GMEM (Sigma) supplemented with 10% fetal bovine serum (FBS) (Hyclone), 2 mM L-glutamine (Invitrogen), 1 mM sodium pyruvate (Invitrogen), 1% nonessential amino acids (Invitrogen), and 0.1 mM (3-mercaptoethanol. Mouse EpiSCs were derived and maintained in the basal medium supplemented with FGF2/activin, CHIR/XAV, or CHIR/IWR-1. The basal medium for rat EpiSC culture is N2B27 (Tong et al., 2011), which was prepared by mixing 500 ml of DMEM/F12 (Invitrogen) with 500 ml of Neurobasal™ medium (Invitrogen), and adding 5 ml of N2 (Invitrogen), 10 ml of B27 (Invitrogen), 5 ml of Glutamax™ (Invitrogen), and 1 ml of 0.1 M β-mercaptoethanol (Sigma). The basal medium for human ESC culture consists of Knockout™ DMEM/F12 supplemented with 20% KSR (Invitrogen), 1% nonessential amino acids, 2 mM L-glutamine, and 0.1 mM (3-mercaptoethanol. Human ESCs were cultured in the basal medium supplemented with FGF2, CHIR/XAV, or CHIR/IWR-1.\nH1, H9, HES-2 and HES-3 human ESC lines were kindly provided by the University of Southern California Stem Cell Core Facility. Human ESCs were routinely maintained on γ-irradiated MEF feeders in Knockout™ DMEM medium (Invitrogen) supplemented with 20% Knockout™ serum replacement (KSR; Invitrogen), 10 ng/ml FGF2 (PeproTech), 1% nonessential amino acids, 2 mM L-glutamine, and 0.1 mM β-mercaptoethanol. […]"}},
  "data": [
    {"smiles": "Cc1c[nH]c(-c2cnc(NCCNc3ccc(C#N)cn3)nc2-c2ccc(Cl)cc2Cl)n1", "note": "[CHIR99021, 6-((2-((4-(2,4-Dichlorophenyl)-5-(4-methyl-1H-imidazol-2-yl)pyrimidin-2-yl)amino)ethyl)amino)nicotinonitrile]", "values": [
      {"measurement": "undifferentiated colony formation from single EpiSC", "setting": "CD1 EpiSCs", "result": "No undifferentiated colonies formed"},
      {"measurement": "self-renewal of Axin2-overexpressing human ESCs", "setting": "H9 human ESCs; Axin2-hESC (H9), CHIR alone", "result": "could support stable and long-term self-renewal of Axin2-hESCs"},
      {"measurement": "human ESC self-renewal / differentiation", "setting": "H9 human ESCs; H9 human ESCs, CHIR 3 μM, IWR-1 2.5 μM, XAV939 2 μM", "result": "induced differentiation of H9 human ESCs"}
    ]}
  ]
}
